Test system: sepsis-induced acute renal failure
Assay: Cecal ligation puncture (CLP) sepsis-induced acute renal failure in aged mice
Format: in vivo, mouse
Conditions: for HPLC creatinine: mean±SE
Description: Animal care followed NIH criteria for the care and use of laboratory animals in research. Young (7-8 weeks) and aged (42-44 weeks) male C57BL/6 mice [National Institutes of Health (NIH), Frederick, Md.] had free access to water and chow (NIH-07) Rodent chow, Zeigler Bros., Gardners, Pa.) before and after surgery.
Aged mice were anesthetized with 100 mg/kg ketamine, 10 mg/kg xylazine, and 1 mg/kg acepromazine IM. After laparotomy, a 5-0 silk ligature was placed 5 mm from the cecal tip. The cecum was punctured twice with a 21-gauge needle and gently squeezed to express a 1 mm column of fecal material. In sham operated animals, the cecum was located, but neither ligated nor punctured. The abdominal incision was closed in two layers with 6-0 nylon sutures. After surgery, one ml of pre-warmed normal saline was given IP. All animals received a broad spectrum antibiotic (imipenem/cilastatin; 25 mg/kg SC), then 1.5 ml of 3/4 saline was administered at 6 and 18 hr after surgery by SC injection. At the time of sacrifice, blood was collected from abdominal aorta for measurement of blood chemistries. The kidneys were harvested for histological and mechanistic studies.
Survival after surgery was assessed every 6 hr within the first 48 hr and then every 8 hr for 4 days. Antibiotic injection and fluid resuscitation were started 6 hr after CLP by SC injection, and then repeated every 12 hr for 4 days.
Animals received 0.4 ml of Ringers lactate (RL) [130 mM Na+, 4 mM K+, 2.7 mM Ca+, 109 mM Cl^−, and 28 mM lactate] or a similar volume of freshly-made Ringers ethyl pyruvate (EP) where EP (Sigma) was substituted for sodium lactate. A single dose was injected IP at 0, 6, or 12 hr after CLP surgery.
Serum levels of blood urea nitrogen (BUN), aspartate transaminase (AST), alanine transaminase (ALT), amylase, creatine kinase (CK) and lactate dehydrogenase (LDH) were measured using an autoanalyzer (Hitachi 917, Boehringer Mannheim, Indianapolis, MN). Serum creatinine were measured by a picric acid-based colorimetric kinetic autoanalyzer (Astra 8 autoanalyzer; Beckman Instruments, Fullerton, Calif.). Serum […] was also measured by high-performance liquid chromatography (HPLC) Johns et al., B Biomed. Sci. Appl. 759:343 (2001)). Acetonitrile was added to serum, centrifuged, and the supernatant fraction was dried, resuspended in 5 mM sodium acetate pH 5.1, and chromatrographed isocratically on a PRP-X200 cation exchange column (Hamilton, Reno Nev.) and detected by UV absorbance at 234 nm (Agilent Technologies, Palo Alto, Calif.).
10% Formalin-fixed and paraffin-embedded kidney sections were stained with periodic acid-Schiff reagent (PAS) or naphthol AS-D chloroacetate esterase (Sigma; St. Louis, Mo.). Histological changes in the cortex and in the outer stripe of the outer medulla (OSOM) were assessed by quantitative measurements of tissue damage. Tubular damage was defined as tubular epithelial swelling, loss of brush border, vacuolar degeneration, necrotic tubules, cast formation, and desquamation. The degree of kidney damage was estimated at 400× magnification using 5 randomly selected fields for each animal by the following criteria: 0, normal; 1, areas of damage <25% of tubules; 2, damage involving 25-50% of tubules, 3, damage involving 50 to 75% of tubules; 4, 75-100% of the area being affected.
All data are expressed as means±SE. Differences between groups were examined for statistical significance by ANOVA with a multiple comparison correction (StatView 4.5, Berkeley, Calif.; or SigmaStat 2.0, SPSS, San Rafael, Calif.). A P value <0.05 was accepted as statistically significant.

## CCOC(=O)C(C)=O [EP, ethyl pyruvate]
EP at 0, 6 or 12 hr after CLP, measured at 24 hr
  tubular damage in cortex and OSOM: significantly reduced the tubular damage
Higher dose (40 mg/kg) EP, single IP dose delayed until 6 hr after surgery
  HPLC creatinine: 0.13 ± 0.01 mg/dL
Higher dose (40 mg/kg) EP, single IP dose delayed until 12 hr after surgery
  HPLC creatinine: 0.17 ± 0.03 mg/dL
Single IP dose 8 mg/kg EP after CLP surgery (0 hr), RL vehicle 0.33±0.07 mg/dl
  HPLC creatinine: 0.17 ± 0.02 mg/dL
Single IP dose 40 mg/kg EP after CLP surgery (0 hr), RL vehicle 0.33±0.07 mg/dl
  HPLC creatinine: 0.14 ± 0.02 mg/dL
Single dose of either 8 or 40 mg/kg EP after surgery, vs. RL
  renal injury as measured by BUN or HPLC creatinine: significantly prevented the renal injury
Summary statement referring to Example 1
  acute renal failure: inhibits acute renal failure
Treatment start after CLP surgery
  therapeutic window for sepsis-induced acute renal failure: ≥ 12 h
Without much change with delayed treatment (up to 12 hr)
  amount of protection for tubular injury score: 60-80%

Reference: US20040068006A1, “Method for preventing acute renal failure” (Critical Therapeutics, Inc., priority 2001, published 2004)
